This is an account of results in ChEMBL document CHEMBL3351613, “Indolylarylsulfones carrying a heterocyclic tail as very potent and broad spectrum HIV-1 non-nucleoside reverse transcriptase inhibitors” (J Med Chem, 2014).

Data set [1] in a line: Cytotoxic activity against human MT4 cells by MTT assay. Type of data set: cell-based.
The test system of data set [2] is Human immunodeficiency virus 1. The experiment in a line: Antiviral activity against HIV1 NL4-3 infected in human MT4 cells assessed as reduction in virus-induced cell death by MTT assay. It is filed as functional, organism-based. The conditions noted are these: Human immunodeficiency virus 1, NL4-3, MT4.
Data set [3] concerns Human immunodeficiency virus 1. The experiment in a line: Antiviral activity against HIV1 3B infected in human CEM cells assessed as protection against virus-induced cytopathicity by giant cell formation assay. Type of data set: functional, organism-based. The note with it: Human immunodeficiency virus 1, 3B, CCRF-CEM.
Data set [4] has as its system Human immunodeficiency virus 2. Nature of the data set: Antiviral activity against HIV2 ROD infected in human CEM cells assessed as protection against virus-induced cytopathicity by giant cell formation assay. It is filed as functional, organism-based. The conditions noted are these: Human immunodeficiency virus 2, ISOLATE ROD, CCRF-CEM.
In data set [5] the test system is Human immunodeficiency virus 1. Nature of the data set: Antiviral activity against HIV1 NL4-3 expressing reverse transcriptase K103N mutant infected in human MT4 cells assessed as reduction in virus-induced cell death by MTT assay. It is filed as functional, organism-based. The note with it: Human immunodeficiency virus 1, NL4-3, MT4.
In data set [6] the test system is Human immunodeficiency virus 1. It is filed as functional, organism-based. The note with it: Human immunodeficiency virus 1, NL4-3, MT4.
Data set [7] relates to Human immunodeficiency virus 1. The experiment in a line: Antiviral activity against HIV1 NL4-3 expressing reverse transcriptase L100I mutant infected in human MT4 cells assessed as reduction in virus-induced cell death by MTT assay. Type of data set: functional, organism-based. The note with it: Human immunodeficiency virus 1, NL4-3, MT4.
The test system of data set [8] is Human immunodeficiency virus 1. It is filed as functional, organism-based. The conditions noted are these: Human immunodeficiency virus 1, NL4-3, MT4. The source holds these as a separate data set.
For data set [9], the target named is T1, Human immunodeficiency virus type 1 reverse transcriptase (Human immunodeficiency virus 1, UniProt Q72547).
Data set [10] concerns the target Human immunodeficiency virus type 1 reverse transcriptase (Human immunodeficiency virus 1, UniProt Q72547, V106A). Nature of the data set: Inhibition of […] HIV1 reverse transcriptase V106A mutant assessed as reduction in enzyme activity.
The target of data set [11] is T1, Human immunodeficiency virus type 1 reverse transcriptase. The source holds these as a separate data set.
Description: Inhibition of wild type HIV1 reverse transcriptase assessed as reduction in enzyme activity
Data set [12] has as its target Human immunodeficiency virus type 1 reverse transcriptase (Human immunodeficiency virus 1, UniProt Q72547, K103N).
Description: Inhibition of wild type HIV1 reverse transcriptase K103N mutant assessed as reduction in enzyme activity
The target in data set [13] is Human immunodeficiency virus type 1 reverse transcriptase (Human immunodeficiency virus 1, UniProt Q72547, L100I).
Description: Inhibition of wild type HIV1 reverse transcriptase L100I mutant assessed as reduction in enzyme activity
Data set [14] addresses Human immunodeficiency virus type 1 reverse transcriptase (Human immunodeficiency virus 1, UniProt Q72547, Y181I).
A short description of data set [15]: in vitro. The conditions noted are these: human, MT4 cells.
Description: Selectivity index, ratio of CC50 for human MT4 cells to EC50 for HIV1 NL4-3 infected in human MT4 cells
Data set [16] concerns Human immunodeficiency virus 1. It is filed as functional, organism-based. The note with it: Human immunodeficiency virus 1, NL4-3, MT4. The source holds these as a separate data set.
Data set [17] concerns Human immunodeficiency virus 1. Nature of the data set: Antiviral activity against HIV1 Clade A (UG273) infected in human PBMC assessed as reduction in p24 antigen production. Type of data set: functional, organism-based. The note with it: Human immunodeficiency virus 1, Clade A (UG273).
Data set [18] deals with Human immunodeficiency virus 1. Nature of the data set: Antiviral activity against HIV1 Clade B (BaL) infected in human PBMC assessed as reduction in p24 antigen production. Type of data set: functional, organism-based. The note with it: Human immunodeficiency virus 1, Clade B (BaL).
In data set [19] the test system is Human immunodeficiency virus 1. Nature of the data set: Antiviral activity against HIV1 Clade C (DJ259) infected in human PBMC assessed as reduction in p24 antigen production. Type of data set: functional, organism-based. The conditions noted are these: Human immunodeficiency virus 1, Clade C (DJ259).
The subject of data set [20] is Human immunodeficiency virus 1. Nature of the data set: Antiviral activity against HIV1 Clade D (UG270) infected in human PBMC assessed as reduction in p24 antigen production. Type of data set: functional, organism-based. The note with it: Human immunodeficiency virus 1, Clade D (UG270).
The subject of data set [21] is Human immunodeficiency virus 1. Nature of the data set: Antiviral activity against HIV1 Clade A/E (ID12) infected in human PBMC assessed as reduction in p24 antigen production. The conditions noted are these: Human immunodeficiency virus 1, Clade A/E (ID12). Type of data set: functional, organism-based.
The test system of data set [22] is Human immunodeficiency virus 1. Nature of the data set: Antiviral activity against HIV1 Clade F (BZ162) infected in human PBMC assessed as reduction in p24 antigen production. It is filed as functional, organism-based. The conditions noted are these: Human immunodeficiency virus 1, Clade F (BZ162).
Data set [23] deals with Human immunodeficiency virus 1. Nature of the data set: Antiviral activity against HIV1 Clade G (HH8793) infected in human PBMC assessed as reduction in p24 antigen production. It is filed as functional, organism-based. The note with it: Human immunodeficiency virus 1, Clade G (HH8793).
For data set [24], the system named is Human immunodeficiency virus 2. The experiment in a line: Antiviral activity against HIV2 ROD infected in human PBMC cells assessed as reduction in p24 antigen production. The note with it: ISOLATE ROD. Type of data set: functional, organism-based.
In data set [25] the test system is Plasma. Nature of the data set: Stability in human plasma assessed as compound hydrolysis after 24 hrs. It is filed as ADME, cell-free.
Data set [26] is described as follows: Permeability by PAMPA method. Type of data set: ADME.
A short description of data set [27]: Drug retention assessed as membrane retention by PAMPA method. It is filed as physicochemical.
Data set [28] is described as follows: Stability in human plasma assessed as remaining unmodified parent compound level after 24 hrs. Type of data set: ADME, cell-free. The conditions noted are these: read-out: Stability.

pEC50, pIC50: −log10 of the molar value. Calls of active or inactive are those of the source. The rule behind the calls is not given here. Some results are limits rather than exact numbers.

As for `Cc1cc(C)cc(S(=O)(=O)c2c(C(=O)NC(C)c3ccncc3)[nH]c3ccc(Cl)cc23)c1` (racemic), in data set [1], the half-maximal cytotoxic concentration (CC50) was 30200 nM. The pEC50 in [2] is 9.70; in data set [3], 8.39; in data set [4] it was less than 5.00; in data set [5] it was 8.03; in data set [6], 7.06; in [7] it was 8.33. Also, in data set [8], the pEC50 is 5.95. Further, the pIC50 in data set [9] is 5.46; in [10], 7.40; in data set [11], 7.40; in [12], 6.66; in [13] it was 7.52; in data set [14], 5.45. In [15], the selectivity ratio amounted to 151000.
Compound `Cc1cc(C)cc(S(=O)(=O)c2c(C(=O)NC(C)c3ccccn3)[nH]c3ccc(Cl)cc23)c1` (racemic) came in with a cytotoxic concentration (CC50) in data set [1] of 54600 nM. Besides, the pEC50 in [2] is 9.22; in [3] it was 8.49; in data set [4] it was less than 5.00; in [5], 7.47; in [6], 6.64; in data set [7], 7.35. For the same compound, the pEC50 in data set [8] is 5.22. Moreover, the pIC50 was 7.19 in data set [11], 7.00 in data set [12], 7.52 in data set [13] and 4.95 in data set [14]. In addition, in [15], the selectivity ratio is 91000.
Compound `Cc1cc(C)cc(S(=O)(=O)c2c(C(=O)NC(C)c3cccnc3)[nH]c3ccc(Cl)cc23)c1` (racemic) displayed a CC50 in [1] of 54600 nM. The pEC50 in data set [2] is 9.22; in [3] it was 8.18; in [4], less than 5.00; in data set [5] it was 7.47; in data set [6] it was 6.66; in [7], 7.70. This compound also had a pEC50 in [8] of 5.07. For the same compound, the pIC50 in data set [11] is 7.00; in [12], 6.92; in data set [13], 7.70; in [14], less than 4.70. In data set [15], the selectivity ratio was determined as 91000.
As for `Cc1cc(C)cc(S(=O)(=O)c2c(C(=O)NCCc3cccs3)[nH]c3ccc(Cl)cc23)c1`, the CC50 in [1] is greater than 52900 nM. The pEC50 is 9.08 in [2]; 8.47 in data set [3]; less than 4.30 in [4]; 7.68 in [5]; 6.80 in data set [6]; 8.27 in data set [7]. Further, in [8], the pEC50 was less than 4.28. Besides, the negative-log IC50 (pIC50) in data set [11] is 7.15; in [12], 7.38; in [13], 9.00; in data set [14], less than 4.70. Besides, the selectivity ratio in data set [15] is greater than 62900.
Regarding `Cc1cc(C)cc(S(=O)(=O)c2c(C(=O)NCCn3c([N+](=O)[O-])cnc3C)[nH]c3ccc(Cl)cc23)c1`, the CC50 in data set [1] is 25400 nM. For the same compound, the pEC50 in [2] is 9.21; in data set [3], 8.39; in data set [4], less than 5.00; in data set [5], 6.85; in [6], 6.17; in data set [7], 6.85. The pEC50 in [8] is less than 4.31. Also, the pIC50 in data set [11] is 7.36; in data set [12], 6.19; in [13], 6.80; in [14] it was 6.88. Besides, the selectivity ratio in data set [15] turned out to be 40900.
For `Cc1cc(C)cc(S(=O)(=O)c2c(C(=O)N[C@H](C)c3ccncc3)[nH]c3ccc(Cl)cc23)c1`, the pEC50 is 9.70 in data set [2]; 8.68 in data set [6]; 6.03 in data set [16]; 6.82 in data set [8]; 8.47 in data set [17]; 8.68 in [18]. For the same compound, the pEC50 in data set [19] is 9.15; in [20] it was 8.74; in [21] it was 8.92; in data set [22] it was 8.80; in data set [23] it was 8.77. In addition, the negative logarithm of the IC50 (pIC50) in data set [9] is 5.65; in data set [10] it was 7.59; in data set [11] it was 7.74; in data set [12] it was 7.30; in data set [13], 8.52. Besides, the outcome in data set [24] was inactive. The Stability entry in data set [25] is “Stable”. This compound showed an apparent permeability coefficient (Papp) in data set [26] of 12.4 ×10⁻⁶ cm/s. The Drug uptake in data set [27] is given as 0%. In [28], the remaining at 24 h was determined as 99%.
For the compound `Cc1cc(C)cc(S(=O)(=O)c2c(C(=O)N[C@@H](C)c3ccncc3)[nH]c3ccc(Cl)cc23)c1`, the negative logarithm of the EC50 (pEC50) in data set [2] was 9.70; in [5], 8.37; in [6], 6.89; in [16], 5.29; in data set [8], 5.38; in data set [17], 8.28. Moreover, the pEC50 is 8.70 in data set [18]; 8.85 in data set [19]; 8.37 in [20]; 8.39 in data set [21]; 8.31 in data set [22]; 8.44 in data set [23]. Moreover, the pIC50 in data set [9] was 3.96; in data set [10] it was 7.26; in data set [11], 7.40; in [12], 6.15; in data set [13], 7.70. The result in data set [24] was inactive.
